In patent US11427567B2, “Imidazolyl pyrimidinylamine compounds as CDK2 inhibitors” (Incyte Corporation, priority 2019, dated 2022):

Target: CDK2/Cyclin E1 (Homo sapiens (Human), UniProt P24941)
Assay: CDK2/Cyclin E1 HTRF enzyme activity assay (Example A)
Assay type: biochemical
Conditions: 1 mM ATP
Description: Assays were conducted in white 384-well polystyrene plates in a final reaction volume of 8 μL. […] HTRF signals were read after 1 hour at room temperature on a PHERAstar FS plate reader (BMG Labtech). Data was analyzed with IDBS XLFit and GraphPad Prism 5.0 software using a three or four parameter dose response curve to determine IC50 for each compound.

Compound | IC50 [nM]
CC(O)c1cccc(-n2cnc(-c3nc(NC4CCN(S(C)(=O)=O)CC4)ncc3C(F)(F)F)c2)c1Cl (stereo not drawn) [Example 83, 1-(2-Chloro-3-(4-(2-((1-(methylsulfonyl)piperidin-4-yl)amino)-5-(trifluoromethyl)pyrimidin-4-yl)-1H-imidazol-1-yl)phenyl)ethan-1-ol] | ≤ 50
CS(=O)(=O)N1CCC(Nc2ncc(C(F)(F)F)c(-c3cn(-c4cccc(CO)c4Cl)cn3)n2)CC1 [Example 84, (2-Chloro-3-(4-(2-((1-(methylsulfonyl)piperidin-4-yl)amino)-5-(trifluoromethyl)pyrimidin-4-yl)-1H-imidazol-1-yl)phenyl)methanol] | ≤ 50
CCC(O)c1cccc(-n2cnc(-c3nc(NC4CCN(S(C)(=O)=O)CC4)ncc3C(F)(F)F)c2)c1Cl (stereo not drawn) [Example 85, 1-(2-Chloro-3-(4-(2-((1-(methylsulfonyl)piperidin-4-yl)amino)-5-(trifluoromethyl)pyrimidin-4-yl)-1H-imidazol-1-yl)phenyl)propan-1-ol] | ≤ 50
CS(=O)(=O)N1CCC(Nc2ncc(C(F)(F)F)c(-c3cn(-c4cccc(C(O)C5CC5)c4Cl)cn3)n2)CC1 (stereo not drawn) [Example 86, (2-chloro-3-(4-(2-((1-(methylsulfonyl)piperidin-4-yl)amino)-5-(trifluoromethyl)pyrimidin-4-yl)-1H-imidazol-1-yl)phenyl)(cyclopropyl)methanol] | ≤ 50
CCS(=O)(=O)N1CCC(Nc2ncc(C(F)(F)F)c(-c3cn(-c4ccc(C)nc4C#N)cn3)n2)CC1 [Example 87, 3-(4-(2-((1-(Ethylsulfonyl)piperidin-4-yl)amino)-5-(trifluoromethyl)pyrimidin-4-yl)-1H-imidazol-1-yl)-6-methylpicolinonitrile] | ≤ 50
Cn1cc(S(=O)(=O)N2CCC(Nc3ncc(C(F)(F)F)c(-c4cn(-c5cccnc5C(F)F)cn4)n3)CC2)cn1 [Example 88, 4-(1-(2-(Difluoromethyl)pyridin-3-yl)-1H-imidazol-4-yl)-N-(1-((1-methyl-1H-pyrazol-4-yl)sulfonyl)piperidin-4-yl)-5-(trifluoromethyl) pyrimidin-2-amine] | ≤ 50
CCS(=O)(=O)N1CCC(Nc2ncc(C(F)(F)F)c(-c3cn(-c4cccnc4C#N)cn3)n2)CC1 [Example 89, 3-(4-(2-((1-(Ethylsulfonyl)piperidin-4-yl)amino)-5-(trifluoromethyl)pyrimidin-4-yl)-1H-imidazol-1-yl)picolinonitrile] | ≤ 50
Cc1ccc(-n2cnc(-c3nc(NC4CCN(S(=O)(=O)c5cnn(C)c5C)CC4)ncc3C(F)(F)F)c2)c(C#N)n1 [Example 90, 3-(4-(2-((1-((1,5-Dimethyl-1H-pyrazol-4-yl)sulfonyl)piperidin-4-yl)amino)-5-(trifluoromethyl)pyrimidin-4-yl)-1H-imidazol-1-yl)-6-methylpicolinonitrile] | ≤ 50
O=S(=O)(C1CC1)N1CCC(Nc2ncc(C(F)(F)F)c(-c3cn(-c4cccnc4C(F)(F)F)cn3)n2)CC1 [Example 91, N-(1-(Cyclopropylsulfonyl)piperidin-4-yl)-5-(trifluoromethyl)-4-(1-(2-(trifluoromethyl)pyridin-3-yl)-1H-imidazol-4-yl)pyrimidin-2-amine] | ≤ 50
N#Cc1cccc(-n2cnc(-c3nc(NC4CCN(S(=O)(=O)C5CC5)CC4)ncc3C(F)(F)F)c2)c1C(F)(F)F [Example 92, 3-(4-(2-((1-(Cyclopropylsulfonyl)piperidin-4-yl)amino)-5-(trifluoromethyl)pyrimidin-4-yl)-1H-imidazol-1-yl)-2-(trifluoromethyl) benzonitrile] | ≤ 50
CCS(=O)(=O)N1CCC(Nc2ncc(C(F)(F)F)c(-c3cn(-c4ccc(C#N)nc4C)cn3)n2)CC1 [Example 93, 5-(4-(2-((1-(Ethylsulfonyl)piperidin-4-yl)amino)-5-(trifluoromethyl)pyrimidin-4-yl)-1H-imidazol-1-yl)-6-methylpicolinonitrile] | ≤ 50
CCCc1ccc(-n2cnc(-c3nc(NC4CCN(S(C)(=O)=O)CC4)ncc3C(F)(F)F)c2)c(C#N)n1 [Example 94, 3-(4-(2-((1-(Methylsulfonyl)piperidin-4-yl)amino)-5-(trifluoromethyl)pyrimidin-4-yl)-1H-imidazol-1-yl)-6-propylpicolinonitrile] | ≤ 50
CCc1ccc(-n2cnc(-c3nc(NC4CCN(S(C)(=O)=O)CC4)ncc3C(F)(F)F)c2)c(C(F)(F)F)n1 [Example 95, 4-(1-(6-Ethyl-2-(trifluoromethyl)pyridin-3-yl)-1H-imidazol-4-yl)-N-(1-(methylsulfonyl)piperidin-4-yl)-5-(trifluoromethyl) pyrimidin-2-amine] | ≤ 50
CS(=O)(=O)N1CCC(Nc2ncc(C(F)(F)F)c(-c3cn(-c4cccc(-c5ccnc(N)c5)c4Cl)cn3)n2)CC1 [Example 96, 4-(1-(3-(2-Aminopyridin-4-yl)-2-chlorophenyl)-1H-imidazol-4-yl)-N-(1-(methylsulfonyl)piperidin-4-yl)-5-(trifluoromethyl)pyrimidin-2-amine] | ≤ 50
CS(=O)(=O)N1CCC(Nc2ncc(C(F)(F)F)c(-c3cn(-c4cccc(-c5cccnc5)c4Cl)cn3)n2)CC1 [Example 97, 4-(1-(2-chloro-3-(Pyridin-3-yl)phenyl)-1H-imidazol-4-yl)-N-(1-(methylsulfonyl)piperidin-4-yl)-5-(trifluoromethyl) pyrimidin-2-amine] | ≤ 50
Cn1cc(-c2ccc(-n3cnc(-c4nc(NC5CCN(S(C)(=O)=O)CC5)ncc4C(F)(F)F)c3)c(C(F)(F)F)n2)cn1 [Example 98, 4-(1-(6-(1-Methyl-1H-pyrazol-4-yl)-2-(trifluoromethyl)pyridin-3-yl)-1H-imidazol-4-yl)-N-(1-(methylsulfonyl)piperidin-4-yl)-5-(trifluoromethyl) pyrimidin-2-amine] | ≤ 50
CS(=O)(=O)N1CCC(Nc2ncc(C(F)(F)F)c(-c3cn(-c4ccc(C#N)nc4C(F)(F)F)cn3)n2)CC1 [Example 99, 5-(4-(2-((1-(Methylsulfonyl)piperidin-4-yl)amino)-5-(trifluoromethyl)pyrimidin-4-yl)-1H-imidazol-1-yl)-6-(trifluoromethyl)picolinonitrile] | ≤ 50
CS(=O)(=O)N1CCC(Nc2ncc(C(F)(F)F)c(-c3cn(-c4ccc(C#N)nc4C(F)F)cn3)n2)CC1 [Example 100, 6-(Difluoromethyl)-5-(4-(2-((1-(methyl-sulfonyl)piperidin-4-yl)amino)-5-(trifluoro-methyl)pyrimidin-4-yl)-1H-imidazol-1-yl)picolinonitrile] | ≤ 50
Cc1nc(-c2nc(NC3CCN(S(C)(=O)=O)CC3)ncc2C(F)(F)F)cn1-c1ccc(N2CCC(N(C)C)CC2)cc1F [Example 101, 4-(1-(4-(4-(Dimethylamino)piperidin-1-yl)-2-fluorophenyl)-2-methyl-1H-imidazol-4-yl)-N-(1-(methylsulfonyl)piperidin-4-yl)-5-(trifluoromethyl)pyrimidin-2-amine] | ≤ 50
Cc1nc(-c2nc(NC3CCN(S(C)(=O)=O)CC3)ncc2C(F)(F)F)cn1-c1ccccc1F [Example 102, 4-(1-(2-Fluorophenyl)-2-methyl-1H-imidazol-4-yl)-N-(1-(methylsulfonyl)piperidin-4-yl)-5-(trifluoromethyl)pyrimidin-2-amine] | ≤ 50
Cc1nc(-c2nc(NC3CCN(S(C)(=O)=O)CC3)ncc2C(F)(F)F)cn1-c1ccc(N2CCN(C)CC2)cc1F [Example 103, 4-(1-(2-Fluoro-4-(4-methylpiperazin-1-yl)phenyl)-2-methyl-1H-imidazol-4-yl)-N-(1-(methylsulfonyl)piperidin-4-yl)-5-(trifluoromethyl)pyrimidin-2-amine] | ≤ 50
Cc1nc(-c2nc(NC3CCN(S(C)(=O)=O)CC3)ncc2C(F)(F)F)cn1-c1ccc(N2CC3(CCN(C)CC3)C2)cc1F [Example 104, 4-(1-(2-Fluoro-4-(7-methyl-2,7-diazaspiro[3.5]-nonan-2-yl)phenyl)-2-methyl-1H-imidazol-4-yl)-N-(1-(methylsulfonyl)-piperidin-4-yl)-5-(trifluoromethyl)-pyrimidin-2-amine] | ≤ 50
Cc1nc(-c2nc(NC3CCN(S(C)(=O)=O)CC3)ncc2C(F)(F)F)cn1-c1ccc(N2CCN(C(C)C)CC2)cc1F [Example 105, 4-(1-(2-Fluoro-4-(4-isopropyl-piperazin-1-yl)-phenyl)-2-methyl-1H-imidazol-4-yl)-N-(1-(methyl-sulfonyl)piperidin-4-yl)-5-(trifluoro-methyl)pyrimidin-2-amine] | ≤ 50
Cc1nc(-c2nc(NC3CCN(S(C)(=O)=O)CC3)ncc2C(F)(F)F)cn1-c1ccc(N2CCC[C@H](N(C)C)C2)cc1F [Example 106, (S)-4-(1-(4-(3-(Dimethylamino)-piperidin-1-yl)-2-fluorophenyl)-2-methyl-1H-imidazol-4-yl)-N-(1-(methyl-sulfonyl)piperidin-4-yl)-5-(trifluoro-methyl)pyrimidin-2-amine] | ≤ 50
CNC1CCN(c2ccc(-n3cc(-c4nc(NC5CCN(S(C)(=O)=O)CC5)ncc4C(F)(F)F)nc3C)c(F)c2)CC1 [Example 107, 4-(1-(2-Fluoro-4-(4-(methylamino)-piperidin-1-yl)-phenyl)-2-methyl-1H-imidazol-4-yl)-N-(1-(methyl-sulfonyl)piperidin-4-yl)-5-(trifluoro-methyl)pyrimidin-2-amine] | ≤ 50
Cc1nc(-c2nc(NC3CCN(S(C)(=O)=O)CC3)ncc2C(F)(F)F)cn1-c1ccc(N2CCN(C)C(=O)C2)cc1F [Example 108, 4-(3-Fluoro-4-(2-methyl-4-(2-((1-(methylsulfonyl)-piperidin-4-yl)-amino)-5-(trifluoro-methyl)pyrimidin-4-yl)-1H-imidazol-1-yl)phenyl)-1-methylpiperazin-2-one] | ≤ 50
Cc1nc(-c2nc(NC3CCN(S(C)(=O)=O)CC3)ncc2C(F)(F)F)cn1-c1ccc(N2CC[C@@H](N(C)C)C2)cc1F [Example 109, (R)-4-(1-(4-(3-(Dimethylamino)-pyrrolidin-1-yl)-2-fluorophenyl)-2-methyl-1H-imidazol-4-yl)-N-(1-(methyl-sulfonyl)piperidin-4-yl)-5-(trifluoro-methyl)pyrimidin-2-amine] | ≤ 50
